In paper PMC10817917, “Alkyl deoxyglycoside-polymyxin combinations against critical priority carbapenem-resistant gram-negative bacteria” (Scientific Reports, 2024):
Read-outs that look alike come from different tables or passages of the source.

Columns and labels:
[1] = tested on: K. pneumoniae CQ4921; assay: Broth microdilution MIC/MBC, glycosides with or without polymyxins; assay type: cell-based, Klebsiella pneumoniae; conditions: for MIC: Klebsiella pneumoniae, CQ4921
[2] = tested on: E. cloacae CQ1941; assay: as above; assay type: cell-based; conditions: for MIC: Enterobacter cloacae, CQ1941
[3] = tested on: K. pneumoniae CQ1947; assay: Broth microdilution MIC, glycosides with or without polymyxins; assay type: cell-based, Klebsiella pneumoniae; conditions: for MIC: Klebsiella pneumoniae, CQ1947
[4] = tested on: P. aeruginosa CQ4924; assay: as above; assay type: cell-based, Pseudomonas aeruginosa; conditions: for MIC: Pseudomonas aeruginosa, CQ4924
[5] = alone, read-out: MICA (MIC of each compound individually)
[6] = combination with the lowest FICI
[7] = compound + colistin, lowest FICI

MIC of colistin in combination with the compound ([1]; Cpd conc. 0.4 μg/mL, strain C): 0.5 µg/mL | MIC of colistin in combination with the compound ([1]; Cpd conc. 0.8 μg/mL, strain C): 0.5 µg/mL | MIC of colistin in combination with the compound ([1]; Cpd conc. 3.125 μg/mL, strain C): 0.125 µg/mL | MIC of colistin in combination with the compound ([1]; Cpd conc. 6.25 μg/mL, strain C): 0.125 µg/mL | MIC of colistin in combination with the compound ([1]; Cpd conc. 12.5 μg/mL, strain C): 0.125 µg/mL | MIC of colistin in combination with the compound ([1]; Cpd conc. […], strain C): 0.5 µg/mL | MIC ([1]; agent alone, no adjuvant (polymyxin conc. 0), strain C, read-out: MIC): > 100 µg/mL | MIC [1, 5]: > 100 µg/mL | MIC of compound in combination with PMB ([1]; PMB 0.25 μg/mL, strain C): > 100 µg/mL | MIC of compound in combination with PMB ([1]; PMB 0.5 μg/mL, strain C): 1.6 µg/mL | MIC of compound in combination with colistin ([1]; colistin 0.06 μg/mL, strain C): > 100 µg/mL | MIC of compound in combination with colistin ([1]; colistin 0.125 μg/mL, strain C): 3.1 µg/mL | MIC of compound in combination with colistin ([1]; colistin 0.5 μg/mL, strain C): ≤ 0.1 µg/mL | MICA(A + B) (MIC of compound in combination with colistin) [1, 6]: 3.125 µg/mL | MICB(A + B) (MIC of colistin in combination with compound) [1, 6]: 0.125 µg/mL | MIC of colistin in combination with the compound ([2]; Cpd conc. 0.4 μg/mL, strain D): 0.5 µg/mL | MIC of colistin in combination with the compound ([2]; Cpd conc. 0.8 μg/mL, strain D): 0.5 µg/mL | MIC of colistin in combination with the compound ([2]; Cpd conc. 3.125 μg/mL, strain D): 0.125 µg/mL | MIC of colistin in combination with the compound ([2]; Cpd conc. 6.25 μg/mL, strain D): 0.125 µg/mL | MIC of colistin in combination with the compound ([2]; Cpd conc. 12.5 μg/mL, strain D): 0.125 µg/mL | MIC of colistin in combination with the compound ([2]; Cpd conc. […], strain D): 0.5 µg/mL | MIC ([2]; agent alone, no adjuvant (polymyxin conc. 0), strain D, read-out: MIC): > 100 µg/mL | MIC [2, 5]: > 100 µg/mL | MIC of compound in combination with PMB ([2]; PMB 0.25 μg/mL, strain D): > 100 µg/mL | MIC of compound in combination with PMB ([2]; PMB 0.5 μg/mL, strain D): 1.6 µg/mL | MIC of compound in combination with colistin ([2]; colistin 0.06 μg/mL, strain D): > 100 µg/mL | MIC of compound in combination with colistin ([2]; colistin 0.125 μg/mL, strain D): 3.1 µg/mL | MIC of compound in combination with colistin ([2]; colistin 0.25 μg/mL, strain D): 3.1 µg/mL | MIC of compound in combination with colistin ([2]; colistin 0.5 μg/mL, strain D): ≤ 0.1 µg/mL | MICA(A + B) (MIC of compound in combination with colistin) [2, 6]: 3.125 µg/mL | MICB(A + B) (MIC of colistin in combination with compound) [2, 6]: 0.125 µg/mL | MIC of colistin in combination with the compound ([3]; Cpd conc. 0.4 μg/mL, strain F): 0.5 µg/mL | MIC of colistin in combination with the compound ([3]; Cpd conc. 0.8 μg/mL, strain F): 0.5 µg/mL | MIC of colistin in combination with the compound ([3]; Cpd conc. 3.125 μg/mL, strain F): 0.25 µg/mL | MIC of colistin in combination with the compound ([3]; Cpd conc. 6.25 μg/mL, strain F): 0.25 µg/mL | MIC of colistin in combination with the compound ([3]; Cpd conc. 12.5 μg/mL, strain F): 0.25 µg/mL | MIC of colistin in combination with the compound ([3]; Cpd conc. […], strain F): 0.5 µg/mL | MIC ([3]; agent alone, no adjuvant (polymyxin conc. 0), strain F, read-out: MIC): > 100 µg/mL | MIC [3, 5]: > 100 µg/mL | MIC of compound in combination with PMB ([3]; PMB 0.25 μg/mL, strain F): > 100 µg/mL | MIC of compound in combination with PMB ([3]; PMB 0.5 μg/mL, strain F): 3.1 µg/mL | MIC of compound in combination with colistin ([3]; colistin 0.06 μg/mL, strain F): > 100 µg/mL | MIC of compound in combination with colistin ([3]; colistin 0.125 μg/mL, strain F): > 100 µg/mL | MIC of compound in combination with colistin ([3]; colistin 0.5 μg/mL, strain F): 0.2 µg/mL | MICA(A + B) (MIC of compound in combination with colistin) [3, 6]: 3.125 µg/mL | MICB(A + B) (MIC of colistin in combination with compound) [3, 6]: 0.25 µg/mL | MIC of colistin in combination with the compound ([4]; Cpd conc. 0.4 μg/mL, strain H): > 0.5 µg/mL | MIC of colistin in combination with the compound ([4]; Cpd conc. 0.8 μg/mL, strain H): > 0.5 µg/mL | MIC of colistin in combination with the compound ([4]; Cpd conc. 3.125 μg/mL, strain H): 0.5 µg/mL | MIC of colistin in combination with the compound ([4]; Cpd conc. 6.25 μg/mL, strain H): 0.5 µg/mL | MIC of colistin in combination with the compound ([4]; Cpd conc. 12.5 μg/mL, strain H): 0.5 µg/mL | MIC of colistin in combination with the compound ([4]; Cpd conc. […], strain H): > 0.5 µg/mL | MIC of compound in combination with PMB ([4]; PMB 0.25 μg/mL, strain H): > 100 µg/mL | MIC of compound in combination with PMB ([4]; PMB 0.5 μg/mL, strain H): 6.3 µg/mL | MIC ([4]; agent alone, no adjuvant (polymyxin conc. 0), strain H, read-out: MIC): > 100 µg/mL | MIC [4, 5]: > 100 µg/mL | MIC of compound in combination with colistin ([4]; colistin 0.06 μg/mL, strain H): > 100 µg/mL | MIC of compound in combination with colistin ([4]; colistin 0.125 μg/mL, strain H): > 100 µg/mL | MIC of compound in combination with colistin ([4]; colistin 0.25 μg/mL, strain H): > 100 µg/mL | MIC of compound in combination with colistin ([4]; colistin 0.5 μg/mL, strain H): 3.1 µg/mL | MICA(A + B) (MIC of compound in combination with colistin) [4, 6]: 3.125 µg/mL | MICB(A + B) (MIC of colistin in combination with compound) [4, 6]: 0.5 µg/mL
Structure (SMILES): CCCCCCCCCCCC[C@H]1O[C@H](C)C[C@H](O)[C@H]1O [Compound 5, 1-(4,6-dideoxy-α-D-xylo-hexopyranosyl)dodecane]
MBC of compound in combination with colistin ([1]; colistin 0.125 μg/mL, strain C): 6.3 µg/mL | Interpretation (of FICI) ([1]; compound + colistin): Synergy (Values ≤ 0.5 were considered synergistic) | FICI [1, 7]: 0.27 | MBC of compound in combination with colistin ([2]; colistin 0.125 μg/mL, strain D): 6.3 µg/mL | FICI [2, 7]: 0.27 | Interpretation (of FICI) ([3]; compound + colistin): Additive (from 0.5 to 1.0 were additive) | FICI [3, 7]: 0.52 | Interpretation (of FICI) ([4]; compound + colistin): Additive (from 0.5 to 1.0 were additive) | FICI [4, 7]: 0.52
